Experimental data from patent US20260216198A1, “GPR35 MODULATORS” (ThirtyFiveBio Limited, priority 2023, published 2026).

Biological target: T1, GPR35 (Homo sapiens, UniProt Q9HC97)
T1 construct: expressed in transfected cells; host or cells: CHO-K1 cells co-expressing mitochondrial aequorin and Gα16
Test: cellular GPR35 phospho-ERK HTRF assay (inhibition of lodoxamide-induced phospho-ERK signal)
Format: cell-based
Conditions: GPR35-CHO-K1-mt aequorin-Gα16 cell line; agonist lodoxamide at EC80; read-out: Activity Group (IC50, inhibition of GPR35 agonist-induced phospho-ERK signal)
Excerpt: (§1) The functional GPR35 assay as described in the accompanying examples measures the ability of GPR35 modulators to inhibit a GPR35 agonist-induced phospho-ERK signal. This is expressed as the concentration of modulator required to reduce the phospho-ERK signal by 50 percent, i.e. the IC50; the signal window being defined as the difference between agonist plus modulator vehicle (no modulator) and agonist vehicle (no agonist) controls.
as §1, with “functional” for “functional GPR35”, “assay” for “assay as”, “described” for “described in the accompanying examples”
This assay is a cellular GPR35 phospho-ERK homogeneous time resolved fluorescence (HTRF) assay using the GPR35-CHO-K1-mt aequorin-Gα16 cell line. Upon activation of GPR35 with the agonist lodoxamide at EC80 concentration, ERK 1/2 is phosphorylated, and after lysis of the cell membrane, phospho-ERK1/2 (Thr202/Tyr204) is detected in a sandwich assay using two different specific antibodies, one labelled with Eu^3+-cryptate (donor) and the second with d2 (acceptor). When the dyes are in proximity, the excitation of the donor with a light source (laser or flash lamp) triggers a Fluorescence Resonance Energy Transfer (FRET) towards the acceptor, resulting in specific acceptor fluorescence (at 665 nm). The specific signal is directly proportional to the amount of phospho-ERK1/2 (Thr202/Tyr204) in the sample. Compounds that interfere with the levels of phospho-ERK1/2 (Thr202/Tyr204) will result in a low HTRF signal.

T1 sequence (Q9HC97 whole entry): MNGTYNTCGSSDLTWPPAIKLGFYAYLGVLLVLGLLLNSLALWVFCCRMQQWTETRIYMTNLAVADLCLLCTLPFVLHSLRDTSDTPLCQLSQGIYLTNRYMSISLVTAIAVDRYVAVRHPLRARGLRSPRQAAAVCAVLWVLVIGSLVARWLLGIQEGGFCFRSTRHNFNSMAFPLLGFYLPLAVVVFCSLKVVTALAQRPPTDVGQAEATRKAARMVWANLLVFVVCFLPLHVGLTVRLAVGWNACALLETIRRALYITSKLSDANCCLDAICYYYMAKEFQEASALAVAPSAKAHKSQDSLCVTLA

In the case of `O=C(Nc1ccc(OCCc2ccccc2)cc1)c1cccc(-c2cnc(NC3CC3)c(C(=O)O)c2)c1` [Example 38, 2-(Cyclopropylamino)-5-(3-((4-phenethoxyphenyl)carbamoyl)phenyl)nicotinic acid], the IC50 is reported as under 1 µM.

In the case of `Cc1ncc(-c2cccc(C(=O)Nc3ccc(COCc4ccccc4)cc3)c2)cc1C(=O)O` [Example 39, 5-(3-((4-((Benzyloxy)methyl)phenyl)carbamoyl)phenyl)-2-methylnicotinic acid], the IC50 is reported as under 1 µM.

`Cc1ncc(-c2cccc(C(=O)Nc3cccc(COCc4ccccc4)c3)c2)cc1C(=O)O` [Example 40, 5-(3-((3-((Benzyloxy)methyl)phenyl)carbamoyl)phenyl)-2-methylnicotinic acid] was tested, and the IC50 was 1 to 10 µM.

For `Cc1ncc(-c2cccc(C(=O)Nc3ccc(OCC4CC4)cc3)c2)cc1C(=O)O` [Example 41, 5-(3-((4-(Cyclopropylmethoxy)phenyl)carbamoyl)phenyl)-2-methylnicotinic acid], the IC50 was 1 to 10 µM.

In the case of `Cc1ncc(-c2cccc(C(=O)Nc3ccc(COC4CC4)cc3)c2)cc1C(=O)O` [Example 42, 5-(3-((4-(Cyclopropoxymethyl)phenyl)carbamoyl)phenyl)-2-methylnicotinic acid], the IC50 is reported as 1 to 10 µM.

`Cc1ncc(-c2cccc(C(=O)Nc3ccc(CS(=O)(=O)Cc4ccccc4)cc3)c2)cc1C(=O)O` [Example 43, 5-(3-((4-((Benzylsulfonyl)methyl)phenyl)carbamoyl)phenyl)-2-methylnicotinic acid] was tested, and the IC50 was 1 to 10 µM.

In the case of `Cc1ncc(-c2cccc(C(=O)Nc3ccc(COCC4CC4)cc3)c2)cc1C(=O)O` [Example 44, 5-(3-((4-((Cyclopropylmethoxy)methyl)phenyl)carbamoyl)phenyl)-2-methylnicotinic acid], the IC50 is reported as 1 to 10 µM.

`O=C(Nc1ccc(COCC2CC2)cc1)c1cccc(-c2cnc(Cl)c(C(=O)O)c2)c1` [Example 45, 2-Chloro-5-(3-((4-((cyclopropylmethoxy)methyl)phenyl)carbamoyl)phenyl)nicotinic acid] showed an IC50 of 1 to 10 µM.

`O=C(Nc1ccc(OCCc2ccccc2)nc1)c1cccc(-c2cccc(C(=O)O)n2)c1` [Example 46, 6-(3-((6-Phenethoxypyridin-3-yl)carbamoyl)phenyl)picolinic acid] was tested, and the IC50 was 1 to 10 µM.

Work on `Cc1ncc(-c2cccc(C(=O)Nc3ccc(COCc4ccccc4)cc3F)c2)cc1C(=O)O` [Example 47, 5-(3-((4-((Benzyloxy)methyl)-2-fluorophenyl)carbamoyl)phenyl)-2-methylnicotinic acid] yielded an IC50 of 1 to 10 µM.

`O=C(Nc1cccc(-c2cccc(C(=O)O)n2)c1)c1ccc(OCCCCc2ccccc2)cc1` [Example 48, 6-(3-(4-(4-Phenylbutoxy)benzamido)phenyl)picolinic acid] was tested, and the IC50 was under 1 µM.

`Cc1ncc(-c2ncc(C(=O)Nc3ccc(COCc4ccccc4)cc3)s2)cc1C(=O)O` [Example 49, 5-(5-((4-((Benzyloxy)methyl)phenyl)carbamoyl)thiazol-2-yl)-2-methylnicotinic acid] showed an IC50 of 1 to 10 µM.

With `Cc1ncc(-c2nc(C(=O)Nc3ccc(COCc4ccccc4)cc3)cs2)cc1C(=O)O` [Example 50, 5-(4-((4-((Benzyloxy)methyl)phenyl)carbamoyl)thiazol-2-yl)-2-methylnicotinic acid] the IC50 was 1 to 10 µM.

Molecule `Cc1ncc(-c2cncc(C(=O)Nc3ccc(OCCc4ccccc4)cc3)c2)cc1C(=O)O` [Example 51, 6-Methyl-5′-((4-phenethoxyphenyl)carbamoyl)-[3,3′-bipyridine]-5-carboxylic acid] has an IC50 of 1 to 10 µM.

Work on `Cc1ncc(-c2ccc(F)c(C(=O)Nc3ccc(COCc4ccccc4)cc3)c2)cc1C(=O)O` [Example 52, 5-(3-((4-((Benzyloxy)methyl)phenyl)carbamoyl)-4-fluorophenyl)-2-methylnicotinic acid] yielded an IC50 of under 1 µM.

With `Cc1ncc(-c2cc(C(=O)Nc3ccc(OCCc4ccccc4)cc3)ccn2)cc1C(=O)O` [Example 53, 6′-Methyl-4-((4-phenethoxyphenyl)carbamoyl)-[2,3′-bipyridine]-5′-carboxylic acid] the IC50 was under 1 µM.

For `Cc1ncc(-c2cncc(C(=O)Nc3ccc(OCCc4ccccc4)cc3)n2)cc1C(=O)O` [Example 54, 2-Methyl-5-(6-((4-phenethoxyphenyl)carbamoyl)pyrazin-2-yl)nicotinic acid], the IC50 was 1 to 10 µM.

Molecule `Cc1ncc(-c2nccc(C(=O)Nc3ccc(OCCc4ccccc4)cc3)n2)cc1C(=O)O` [Example 55, 2-Methyl-5-(4-((4-phenethoxyphenyl)carbamoyl)pyrimidin-2-yl)nicotinic acid] has an IC50 of 1 to 10 µM.

Work on `Cc1ncc(-c2cccc(C(=O)Nc3ccc(COCc4ccccc4)c(F)c3)c2)cc1C(=O)O` [Example 56, 5-[3-[[4-(Benzyloxymethyl)-3-fluoro-phenyl]carbamoyl]phenyl]-2-methyl-pyridine-3-carboxylic acid] yielded an IC50 of under 1 µM.

`Cc1ncc(-c2cccc(C(=O)Nc3cnn(CCc4ccccc4)c3)c2)cc1C(=O)O` [Example 57, 2-Methyl-5-[3-[[1-(2-phenylethyl)pyrazol-4-yl]carbamoyl]phenyl]pyridine-3-carboxylic acid] was tested, and the IC50 was under 1 µM.

In the case of `Cc1ccc(S(=O)(=O)Cc2ccc(NC(=O)c3cccc(-c4cnc(C)c(C(=O)O)c4)c3)cc2)cc1` [Example 58, 2-Methyl-5-[3-[[4-(p-tolylsulfonylmethyl)phenyl]carbamoyl]phenyl]pyridine-3-carboxylic acid], the IC50 is reported as under 1 µM.

With `Cc1ncc(-c2cccc(C(=O)Nc3ccc(COC(C)c4ccccc4)cc3)c2)cc1C(=O)O` (stereo not shown) [Example 59, 2-Methyl-5-[3-[[4-(1-phenylethoxymethyl)phenyl]carbamoyl]phenyl]pyridine-3-carboxylic acid] the IC50 was under 1 µM.

For `Cc1ncc(-c2cccc(C(=O)Nc3ccc(OC(C)C4CC4)cc3)c2)cc1C(=O)O` (stereo not shown) [Example 60, 5-[3-[[4-(1-Cyclopropylethoxy)phenyl]carbamoyl]phenyl]-2-methyl-pyridine-3-carboxylic acid], the IC50 was under 1 µM.

`COc1cc(COCc2ccccc2)ccc1NC(=O)c1cccc(-c2cnc(C)c(C(=O)O)c2)c1` [Example 61, 5-[3-[[4-(Benzyloxymethyl)-2-methoxy-phenyl]carbamoyl]phenyl]-2-methyl-pyridine-3-carboxylic acid] showed an IC50 of 1 to 10 µM.

`Cc1ncc(-c2cccc(C(=O)Nc3ccc(COCc4ccccn4)c(F)c3)c2)cc1C(=O)O` [Example 62, 5-[3-[[3-Fluoro-4-(2-pyridylmethoxymethyl)phenyl]carbamoyl]phenyl]-2-methyl-pyridine-3-carboxylic acid] showed an IC50 of 1 to 10 µM.

For `COc1ccc(COCc2ccc(NC(=O)c3cccc(-c4cnc(C)c(C(=O)O)c4)c3)cc2F)cc1` [Example 63, 5-[3-[[3-Fluoro-4-[(4-methoxyphenyl)methoxymethyl]phenyl]carbamoyl]phenyl]-2-methyl-pyridine-3-carboxylic acid], the IC50 was under 1 µM.

`COc1cccc(COCc2ccc(NC(=O)c3cccc(-c4cnc(C)c(C(=O)O)c4)c3)cc2F)c1` [Example 64, 5-[3-[[3-Fluoro-4-[(3-methoxyphenyl)methoxymethyl]phenyl]carbamoyl]phenyl]-2-methyl-pyridine-3-carboxylic acid] was tested, and the IC50 was under 1 µM.

`O=C(O)c1cnc(F)c(-c2cccc(C(=O)Nc3ccc(OCCc4ccccc4)cc3)c2)c1` [Example 65, 6-Fluoro-5-[3-[[4-(2-phenylethoxy)phenyl]carbamoyl]phenyl]pyridine-3-carboxylic acid] showed an IC50 of under 1 µM.

`O=C(O)c1cnc(O)c(-c2cccc(C(=O)Nc3ccc(OCCc4ccccc4)cc3)c2)c1` [Example 66, 6-Hydroxy-5-[3-[[4-(2-phenylethoxy)phenyl]carbamoyl]phenyl]pyridine-3-carboxylic acid] gave an IC50 of 1 to 10 µM.

`O=C(O)c1cnnc(-c2cccc(C(=O)Nc3ccc(COCc4ccccc4)cc3)c2)c1` [Example 67, 6-[3-[[4-(Benzyloxymethyl)phenyl]carbamoyl]phenyl]pyridazine-4-carboxylic acid] showed an IC50 of under 1 µM.

With `Cc1ncc(-c2cccc(C(=O)Nc3ccc(COCc4ccccc4)cc3)c2)nc1C(=O)O` [Example 68, 6-[3-[[4-(Benzyloxymethyl)phenyl]carbamoyl]phenyl]-3-methyl-pyrazine-2-carboxylic acid] the IC50 was under 1 µM.

With `Cc1ncc(-c2cc(C(=O)Nc3ccc(OCCc4ccccc4)cc3)ncn2)cc1C(=O)O` [Example 69, 2-Methyl-5-[6-[[4-(2-phenylethoxy)phenyl]carbamoyl]pyrimidin-4-yl]pyridine-3-carboxylic acid] the IC50 was under 1 µM.

`Cc1ncc(-c2ccnc(C(=O)Nc3ccc(OCCc4ccccc4)cc3)c2)cc1C(=O)O` [Example 70, 2-Methyl-5-[2-[[4-(2-phenylethoxy)phenyl]carbamoyl]-4-pyridyl]pyridine-3-carboxylic acid] gave an IC50 of under 1 µM.

With `Cc1ncc(-c2cc(C(=O)Nc3ccc(OCCc4ccccc4)cc3)cnn2)cc1C(=O)O` [Example 71, 2-Methyl-5-[5-[[4-(2-phenylethoxy)phenyl]carbamoyl]pyridazin-3-yl]pyridine-3-carboxylic acid] the IC50 was 1 to 10 µM.
